Source: patent publication EP0117060A2, “Methods of screening and amplification in eukaryotic host cells, and nucleotide sequences and expression vectors for use therein” (GENENTECH, INC., priority 1983, dated 1984)

Assays:
Type in all cases: cell-based, Chinese hamster
[1] = system: CHO-DUX-B11 (dhfr-) cells transfected with pFD11 (pFD11.1); assay: Growth inhibition by MTX, 3 day cell count assay, pFD11 transfected clone; details: Cricetulus griseus, 72 h; cells from the pFD11 transfected colony (pFD11.1), wild type DHFR plasmid; 3 days, cells counted; read-out: level of MTX which inhibits cell growth by 50 percent over the 3 day assay
Description: (§1) A deficiency of the wild type DHFR as a selectable marker in tissue culture systems is the relatively low degree of MTX resistance conferred upon the transfected cells by the transfected wild type enzyme expression plasmid. […] Individual colonies were isolated from pFR400 or pFDll transfected dhfr- cells and propagated in the absence of MTX. Equal amounts of cells from two clones and of CHO-Kl cells were trypsinized and split into 60 mm dishes. Various levels of MTX were added to each dish, the cells incubated for 3 days, and then counted.
(§2) The pFDll transfected cells were clearly less capable of growing in high levels of MTX than were the CHO-K1 (DHFR^+) cells grown under identical conditions. The level of MTX which inhibits cell growth by 50 percent over the 3 day assay was approximately 3 nM for cells derived from the pFDll transfected colony (pFD11.1) and was 20nM for CHO-K1 cells. In contrast to this, the colony (pFR400.1) isolated from the cells transfected with pFR400, was able to grow in extremely high levels of MTX. The 50 percent inhibition level for FR400.1 cells is approximately 3000 nM.

[2] = system: CHO-DUX-B11 (dhfr-) cells transfected with pFR400 (pFR400.1); assay: Growth inhibition by MTX, 3 day cell count assay, pFR400 transfected clone; details: Cricetulus griseus, 72 h; FR400.1 cells (colony from pFR400 transfected dhfr- cells, mutant DHFR 3T6 R400); 3 days, cells counted; read-out: 50 percent inhibition level
Description: as §1, §2

CHO-K1 cells = assay: Growth inhibition by MTX, 3 day cell count assay, untransformed wild type cells; details: Cricetulus griseus, 72 h, CHO-K1 (DHFR+) cells, 3 days, cells counted, read-out: level of MTX which inhibits cell growth by 50 percent over the 3 day assay
Description: as §1, §2

## CN(Cc1cnc2nc(N)nc(N)c2n1)c1ccc(C(=O)N[C@@H](CCC(=O)O)C(=O)O)cc1 [MTX, methotrexate]
[1]
  IC50: ~3 nM
[2]
  IC50: ~3000 nM
CHO-K1 cells
  IC50: 20 nM
